Laboratory results: PMC8011643 (Bioorganic & medicinal chemistry letters, 2019)
Where two headings read alike, the source gives them in different places.

Experiments:
SK-HEP-1 hepatoma cells = test: SK-Hep-1 invasion/migration, live cell transwell assay; type: cell-based, human; conditions: for effect on SK-Hep-1 invasion in words: live cell transwell assay
human CXCR6 receptor [1] = target: T1, human CXCR6 receptor (Homo sapiens, UniProt O00574); type: cell-based
CCR6 human receptor = conditions: read-out: IC50 against CCR6; previously reported; cited from earlier work
CXCR5 human receptor = conditions: read-out: IC50 against CXCR5; previously reported; cited from earlier work
CXCR4 human receptor = conditions: read-out: IC50 against CXCR4; previously reported; cited from earlier work
human CXCR6 receptor [2] = target: T1, human CXCR6 receptor; test: Antagonism of CXCL16; type: cell-based; conditions: vs ML339
[3] = Solubility in aqueous buffer; type: physicochemical; conditions: pH range 5.0–7.4
PAMPA permeability = type: in vitro ADME
Plasma protein binding = type: in vitro ADME
[4] = Stability in mouse plasma; type: in vitro ADME
[5] = Stability in human plasma; type: in vitro ADME
human liver microsomes = test: Metabolic stability in human liver microsomes; type: in vitro ADME; conditions: within 1h
[6] = Metabolic stability in mouse liver microsomes; type: in vitro ADME; conditions: within 1h
[7] = Rapid Assessment of Compound Exposure; type: in vivo, mouse

T1 sequence (O00574 whole entry): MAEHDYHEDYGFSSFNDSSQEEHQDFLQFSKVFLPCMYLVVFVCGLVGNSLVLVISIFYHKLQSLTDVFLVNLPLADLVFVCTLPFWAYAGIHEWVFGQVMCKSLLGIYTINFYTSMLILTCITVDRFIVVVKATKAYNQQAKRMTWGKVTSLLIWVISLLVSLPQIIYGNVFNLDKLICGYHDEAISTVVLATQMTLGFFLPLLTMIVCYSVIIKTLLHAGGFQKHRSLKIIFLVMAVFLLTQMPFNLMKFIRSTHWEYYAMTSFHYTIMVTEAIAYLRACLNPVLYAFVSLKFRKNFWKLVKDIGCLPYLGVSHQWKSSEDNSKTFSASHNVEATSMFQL

Compound: O=C(CN1[C@@H]2CCC[C@H]1C[C@H](NC(=O)c1ccccc1)C2)Nc1ccccc1 [Compound 6]
- effect on SK-Hep-1 invasion in words (SK-HEP-1 hepatoma cells): had no effect

Compound: COc1cc(C(=O)N[C@@H]2C[C@H]3CCC[C@@H](C2)N3Cc2ccccc2Cl)cc(OC)c1OC [Compound 59]
- fold lower activity than compound 17 (human CXCR6 receptor [1]; vs compound 17): 48 fold

Compound: COc1cc(C(=O)N[C@@H]2C[C@H]3CCC[C@@H](C2)N3CC(=O)c2nc3ccccc3s2)cc(OC)c1OC [Compound 72]
- fold loss in activity (human CXCR6 receptor [1]; carbonyl linkage, comparator not named): 100 fold

Compound: COc1cc(C(=O)N[C@@H]2C[C@H]3CCC[C@@H](C2)N3Cc2nc3c(Cl)cccc3s2)cc(OC)c1OC [Compound 73]
- effect on SK-Hep-1 invasion in words (SK-HEP-1 hepatoma cells): inhibited invasion

Compound: COc1cc(C(=O)N[C@@H]2C[C@H]3CCC[C@@H](C2)N3CC(=O)Nc2ccccc2Cl)cc(OC)c1OC [Compound 17]
- IC50 (CCR6 human receptor): > 80 µM
- IC50 (CXCR5 human receptor): > 80 µM
- IC50 (CXCR4 human receptor): > 80 µM

Compound: COc1cc(C(=O)N[C@@H]2C[C@H]3CCC[C@@H](C2)N3Cc2nc3c(C(F)(F)F)cccc3s2)cc(OC)c1OC [Compound 81]
- EC50 (human CXCR6 receptor [1]): 0.04 µM
- fold improvement in potency in β-arrestin assay (human CXCR6 receptor [1]; vs ML339): ≥ 10 fold
- fold improvement in potency in cAMP assay (human CXCR6 receptor [2]): ≥ 10 fold
- cell viability in words (SK-HEP-1 hepatoma cells; SK-HEP-1, 72 h): without loss in cell viability
- solubility in words [3]: good solubility
- PAMPA permeability in words (PAMPA permeability): good PAMPA permeability
- plasma protein binding in words (Plasma protein binding): high plasma protein binding
- stability in mouse plasma in words [4]: excellent stability
- stability in human plasma in words [5]: excellent stability
- metabolism in human liver microsomes in words (human liver microsomes): almost completely metabolized
- metabolism in mouse liver microsomes in words [6]: almost completely metabolized
- exposure in RACE assay in words ([7]; 10 mg/kg oral dose, DMSO: Tw80: H2O (1:1:8)): good exposure
- bioavailability in words ([7]; mice): good bioavailability
- SK-HEP-1 tumor growth vs vehicle in words (SK-HEP-1 tumor; 30 mg/kg oral, Day 4 to Day 30, P < 0.0005): significantly inhibited
- SK-HEP-1 tumor growth vs vehicle in words (SK-HEP-1 tumor; 60 mg/kg oral, Day 4 to Day 30, P < 0.0002): significantly inhibited
- toxicity to mice in words (SK-HEP-1 tumor; 30 and 60 mg/kg, 30-day study): non-toxic
